For one assay, the target named is T1, WDR1 (Homo sapiens, UniProt O75083).
T1 construct: GA-amide protected WDR1 at different temperature gradients in the CETSA in T2-4 cells; endogenous in cells; host or cells: T2-4 patient-derived glioma cells
As to the kind of experiment: Cellular thermal shift assay (CETSA) in T2-4 cells. The format is cell-based. The settings on record: 3 µM, 1 h, 67°C–70°C. As to the method:
The cellular thermal shift assay (CETSA) has been described previously. Briefly, cells were incubated with DMSO or 3 µM GA-amide for 1 h and washed with PBS three times. Then, the cells were suspended in 1 mL of PBS and divided into equal volumes, followed by heating for 3 min at the indicated temperatures. After heating, three snap freeze–thaw cycles were applied to lyse the cells, and western blotting was performed as previously described.

Assay [1] has as its system primary brain tumor (H-RasV12 activated, p53 silenced). As to the kind of experiment: Transgenic mouse glioma model (pTomo-Ras-sip53 lentivirus). As to conditions: 1 mg/kg i.v. daily for 11 days. The format is in vivo, C57BL/6 mice. As to the method: Fig. 3 The inhibitory effects of GA-amide in glioma stem cell-derived mouse models and transgenic mouse models. a, b GSC2 cells were implanted s.c. into nude mice. Mice were treated with control (DMSO) (n = 7) or GA-amide (2 mg/kg) (n = 8) via i.p. injection once daily for 11 days, after which a photograph (a) was taken to show the tumor volume, and the tumor volume was calculated by a modified ellipsoid formula in (b). c, d GSC2 cells were implanted intracranially into nude mice. Mice were injected i.v. with control (n = 8) or 1 mg/kg GA-amide (n = 8) daily for 13 days, the Mantel‒Cox log–rank test was used for analysis, and the relative survival curves are shown in (c). The body weights are shown in (d). e In vivo efficacy studies of GA-amide using transgenic mouse models. Glioma was induced in transgenic C57BL/6 mice by injection of pTomo-Ras-sip53 lentivirus, and the strategy is shown. f, g MRI analysis was used to group mice into the control (n = 7) and GA-amide-treated groups (n = 8) before treatment. The statistical results are shown in (f), and representative MRI images are shown in (g). […]

T1 sequence (O75083 whole entry): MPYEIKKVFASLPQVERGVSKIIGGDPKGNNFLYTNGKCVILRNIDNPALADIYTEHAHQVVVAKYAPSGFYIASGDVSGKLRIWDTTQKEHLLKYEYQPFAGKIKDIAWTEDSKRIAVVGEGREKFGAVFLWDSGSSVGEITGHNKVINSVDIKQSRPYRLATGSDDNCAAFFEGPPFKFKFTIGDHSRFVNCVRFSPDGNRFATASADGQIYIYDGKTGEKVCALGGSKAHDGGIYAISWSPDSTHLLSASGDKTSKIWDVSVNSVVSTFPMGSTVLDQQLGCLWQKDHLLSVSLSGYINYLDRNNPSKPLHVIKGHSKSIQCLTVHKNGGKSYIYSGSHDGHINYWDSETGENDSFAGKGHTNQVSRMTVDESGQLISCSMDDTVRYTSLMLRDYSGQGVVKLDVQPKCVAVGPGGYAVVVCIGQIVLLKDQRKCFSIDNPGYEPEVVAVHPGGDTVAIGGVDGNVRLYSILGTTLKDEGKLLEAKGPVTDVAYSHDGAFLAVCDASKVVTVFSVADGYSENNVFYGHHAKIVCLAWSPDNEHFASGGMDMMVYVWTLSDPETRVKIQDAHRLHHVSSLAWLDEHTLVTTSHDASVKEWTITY

As to `CC(C)=CCC[C@]1(C)C=Cc2c(O)c3c(c(CC=C(C)C)c2O1)O[C@]12C(=C[C@@H]4CC1C(C)(C)O[C@@]2(C/C=C(/C)C(N)=O)C4=O)C3=O` [GA-amide, gambogic amide], on WDR1, the “WDR1 thermal stabilization (western blot band)” value is on record as “the band persisted in the cells treated with GA-amide”. Also, in assay [1], the “Ki67 and CD133 expression in tumor sections” value was “lower expression of the proliferation marker Ki67”; the “tumor size by MRI versus control” value was “significantly smaller compared to the control mice”.
